According to patent US6391329B1, “Insect pest control method” (Earth Chemical Co., Ltd., priority 1994, dated 2002):
Like-named read-outs stand apart in the source and are kept apart here.

Assays:
[1] = Vapor pressure measurement of pyrethroid compounds with the vapor pressure measuring apparatus
[2] = Vapor pressure at 30° C. on the cox diagram; type: physicochemical
Protocol: Compounds which are hard to vaporize at normal temperature can be used in the present invention as a pesticidal component. Those having a vapor pressure […] than 1×10^−7 mmHg at 30° C. and a boiling point of not lower than 120° C./1 mmHg are preferred. It should be noted that the range of vapor pressure as referred to herein is the range at 30° C. on the vapor pressure vs. temperature plot in the cox diagram hereinafter described.
The results of our study have made it possible to suppose or know the vapor pressure at a target temperature by utilizing the cox diagram only if at least one found value is available. The aforesaid problem can thus be solved.
The cox diagram as used herein is the straight line or a group of the straight lines obtained by plotting log P as ordinate and t/(t+C) as abscissa on a graph.

[3] = system: Northern house mosquito (female adult); experiment: Insecticidal test in acrylic resin cylinder, air blown through impregnated honeycomb carrier (Example 1); type: in vivo; settings: 500 mg preparation; for number of knockdowns: 26 to 30° C.
Source text: Testing apparatus 1 shown in FIG. 1 comprising acrylic resin cylinder 4 was used. Twenty of northern house mosquitos (female adult) were put in the space partitioned with insect nets 2, and blower 3 was set at the bottom of testing apparatus 1. Preparation-retaining material 5 comprising a honeycomb carrier impregnated with a preparation was fitted in at the lower part of cylinder 4 and above blower 3. Air was blown from the bottom of cylinder 4 and passed through the preparation-retaining material 5 to release the pesticidal component from the preparation, and the insecticidal effect was examined using apparatus 1 for insect control of the present invention.
The number of knockdowns of the mosquitos was counted for every 30 seconds during 10 minutes and 30 seconds following the start of the testing. The mosquitos knocked down were transferred to a clean plastic cup (volume: about 500 ml) containing a cotton wad impregnated with a 1% aqueous sugar solution as feed, and the cup was covered and maintained under constant temperature conditions of about 25° C. […]
The preparation-retaining material used herein was prepared as follows. A honeycomb structure (70×70×15 mm) comprising a laminate of corrugated boards (single-sided) made of bleached kraft paper having a basis weight of 80 g/m^2 (height of the corrugation: about 2 mm) was uniformly impregnated with 3 ml of an acetone solution containing about 500 mg of preparation. The impregnated carrier was set in the apparatus after acetone vaporized.

[4] = system: sensitive German cockroaches (Blatella germanica); experiment: Cockroach knockdown and mortality in 24 m^3 test room (Example 3); type: in vivo; settings: 1.0 g pesticidal component
Protocol: (§1) The insect pest control apparatus of the present invention was put at the center of the floor of the room, and two cups each containing 20 cockroaches were placed at each of the two opposite corners of the floor. The pesticidal component shown in Table 5 below was released from the apparatus for consecutive 24 hours. As test insects, sensitive German cockroaches (Blatella germanica) and sensitive smokybrown cockroaches (Periplaneta fuliginosa) were used.
(§2) The preparation-retaining material used was prepared by impregnating a honeycomb carrier (70×70×15 mm; FIG. 3) with 1.0 g of the pesticidal component.

[5] = system: sensitive smokybrown cockroaches (Periplaneta fuliginosa); experiment: as above; type: in vivo; settings: 1.0 g pesticidal component
Protocol: as §1, §2

[6] = at 30° C.; cited from earlier work

With C#CC(OC(=O)C1C(C=C(C)C)C1(C)C)/C(C)=C/CC (mixture of isomers) [empenthrin, 1-ethynyl-2-methyl-2-pentenyl dl-cis/trans-3-(2,2-dimethylvinyl)-2,2-dimethyl-1-cyclopropanecarboxylate] the “Vapor Pressure” value ([1]; 20° C.) was 5.1 × 10^−4 mmHg, the “Vapor Pressure” value ([1]; 25° C.) was 9.2 × 10^−4 mmHg and the “Vapor Pressure” value ([1]; 30° C.) was 1.6 × 10^−3 mmHg. For the same compound, the “Vapor Pressure” value ([1]; 35° C.) was 2.8 × 10^−3 mmHg, the “Vapor Pressure” value ([1]; 40° C.) was 4.8 × 10^−3 mmHg and the “Vapor Pressure at 30° C.” value [2] was 1.5 × 10^−3 mmHg. It also gave a number of knockdowns ([3]; 0.5 min) of 0, a number of knockdowns ([3]; 1.0 min) of 0 and a number of knockdowns ([3]; 1.5 min) of 1. For the same compound, the number of knockdowns ([3]; 2.0 min) was 2, the number of knockdowns ([3]; 2.5 min) was 5 and the number of knockdowns ([3]; 3.0 min) was 10. The number of knockdowns ([3]; 3.5 min) was 16, the number of knockdowns ([3]; 4.0 min) was 25 and the “Mortality (%)” value ([3]; 24 hrs.) was 96%. The “Mortality (%)” value ([3]; 48 hrs.) was 100%, the “Knockdown Ratio (%)” value ([4]; 1 hr) was 0% and the “Knockdown Ratio (%)” value ([4]; 2 hrs) was 0%. The “Knockdown Ratio (%)” value ([4]; 4 hrs) was 0%, the “Knockdown Ratio (%)” value ([4]; 24 hrs) was 90.0% and the “Mortality at 48 hrs (%)” value ([4]; 48 hrs) was 90.0%. For the same compound, the “Knockdown Ratio (%)” value ([5]; 1 hr) was 0%, the “Knockdown Ratio (%)” value ([5]; 2 hrs) was 0% and the “Knockdown Ratio (%)” value ([5]; 4 hrs) was 0%. For the same compound, the “Knockdown Ratio (%)” value ([5]; 24 hrs) was 65.0% and the “Mortality at 48 hrs (%)” value ([5]; 48 hrs) was 75.0%.
In the case of COP(=O)(OC)OC=C(Cl)Cl [DDVP], the Vapor Pressure [6] is listed as 1×10^−2 mmHg, the “Vapor Pressure” value ([1]; 20° C.) is listed as 1.2 × 10^−2 mmHg and the “Vapor Pressure” value ([1]; 25° C.) is listed as 1.9 × 10^−2 mmHg. The “Vapor Pressure” value ([1]; 30° C.) was 3.0 × 10^−2 mmHg, the “Vapor Pressure” value ([1]; 35° C.) was 4.6 × 10^−2 mmHg and the “Vapor Pressure” value ([1]; 40° C.) was 7.1 × 10^−2 mmHg.
